Experimental data reported in US7901692B2, “Nontypeable Haemophilus influenzae virulence factors” (Nationalwide Children's Hospital, Inc., priority 2003, dated 2011).

Assays:
NTHi sapF::mTn5 mutants = assay: Broth minimal inhibitory concentration (MIC) analysis for protamine; assay type: cell-based, nontypeable Haemophilus influenzae
Text: To ensure no secondary mutation in the original sapF::mTn5 mutant contributed to the various phenotypes of this mutant, the parent strain 86-028NP was transformed with the 6 kb EcoRV fragment containing the sapF::mTn5 allele from the pBlueA1 plasmid. The wild type sapF gene was replaced in this strain by homologous recombination with the sapF::mTn5 allele. One Km resistant clone was confirmed to harbor a miniTn5 interrupted sapF gene by PCR and Southern blot analysis. This clone was further characterized together with the sapF::mTn5 strain and designated RcsapF::mTn5.
(§1) Since the sap mutants of S. typhimurium and E. chrysanthemi were reported to be hypersensitive to certain antimicrobial peptides, sensitivity to several commercial available cationic peptides against the NTHi parent and the sapF mutant strains was analyzed. […] Broth minimal inhibitory concentration (MIC) analyses for protamine determined that the MIC of protamine for the sapF::mTn5 mutants was lower than that for the parent strain (0.2 mg/ml versus 0.4 mg/ml). […] Thus, the sapF gene product is not required for growth in enriched media, and the lack of growth of the sapF mutants at the lower protamine concentrations in sBHI broth was not due to a growth defect. Therefore, the sapF mutation may be responsible for the phenotype of increased sensitivity to protamine, and the in vivo attenuation property of the sapF mutant.

[1] = tested on: NTHi parent strain 86-028NP; assay: as above; assay type: cell-based, nontypeable Haemophilus influenzae; details: aerobic growth in sBHI broth
Method: as §1

With protamine the “sensitivity of mutant to the action of protamine” value (NTHi sapF::mTn5 mutants; sapF::mTn5 mutant, more sensitive (relative to parent strain)) was 3 fold, the MIC of protamine (NTHi sapF::mTn5 mutants; sapF::mTn5 mutants, aerobic growth in sBHI broth) was 200 µg/mL and the MIC of protamine [1] was 400 µg/mL.
